Source: ChEMBL document CHEMBL1926681, “Novel inhibitors of epidermal growth factor receptor: (4-(Arylamino)-7H-pyrrolo[2,3-d]pyrimidin-6-yl)(1H-indol-2-yl)methanones and (1H-indol-2-yl)(4-(phenylamino)thieno[2,3-d]pyrimidin-6-yl)methanones” (Bioorg Med Chem, 2012)
Activity calls are given as the source filed them. The calls are words filed in the database; no cut-off is given here.

What was measured:
CAL-27 = test: Cytotoxicity against human CAL27 cells after 4 days by propidium iodide staining-based fluorometric analysis; assay type: functional, cell-based; conditions: CAL-27, 96 h
[1] = Cytotoxicity against human CXF 269L cells after 4 days by propidium iodide staining-based fluorometric analysis; assay type: functional, cell-based; conditions: 96 h
[2] = Cytotoxicity against human LXFA 526L cells after 4 days by propidium iodide staining-based fluorometric analysis; assay type: functional, cell-based; conditions: 96 h
[3] = Cytotoxicity against human GXF251L cells after 4 days by propidium iodide staining-based fluorometric analysis; assay type: functional, cell-based; conditions: GXF 251L, 96 h
TE-671 = test: Cytotoxicity against human TE671 cells after 4 days by propidium iodide staining-based fluorometric analysis; assay type: functional, cell-based; conditions: TE-671, 96 h
[4] = Cytotoxicity against human LXFA 629L cells after 4 days by propidium iodide staining-based fluorometric analysis; assay type: functional, cell-based; conditions: 96 h
[5] = Cytotoxicity against human MEXF 276L cells after 4 days by propidium iodide staining-based fluorometric analysis; assay type: functional, cell-based; conditions: MEXF276L, 96 h
[6] = Cytotoxicity against human PXF 1118L cells after 4 days by propidium iodide staining-based fluorometric analysis; assay type: functional, cell-based; conditions: 96 h
[7] = Cytotoxicity against human PAXF 1657L cells after 4 days by propidium iodide staining-based fluorometric analysis; assay type: functional, cell-based; conditions: 96 h
[8] = Cytotoxicity against human RXF 486L cells after 4 days by propidium iodide staining-based fluorometric analysis; assay type: functional, cell-based; conditions: 96 h
[9] = Cytotoxicity against human DIFI cells after 4 days by propidium iodide staining-based fluorometric analysis; assay type: functional, cell-based; conditions: 96 h
HCT-116 = test: Cytotoxicity against human HCT116 cells after 4 days by propidium iodide staining-based fluorometric analysis; assay type: functional, cell-based; conditions: HCT-116, 96 h
[10] = Cytotoxicity against human UXF 1138L cells after 4 days by propidium iodide staining-based fluorometric analysis; assay type: functional, cell-based; conditions: 96 h
[11] = Cytotoxicity against human MEXF 1341L cells after 4 days by propidium iodide staining-based fluorometric analysis; assay type: functional, cell-based; conditions: 96 h
[12] = Cytotoxicity against human LXFA 289L cells after 4 days by propidium iodide staining-based fluorometric analysis; assay type: functional, cell-based; conditions: 96 h
[13] = Cytotoxicity against human LXFL 1121L cells after 4 days by propidium iodide staining-based fluorometric analysis; assay type: functional, cell-based; conditions: 96 h
RKO = test: Cytotoxicity against human RKO cells after 4 days by propidium iodide staining-based fluorometric analysis; assay type: functional, cell-based; conditions: 96 h
[14] = Cytotoxicity against human PXF 698L cells after 4 days by propidium iodide staining-based fluorometric analysis; assay type: functional, cell-based; conditions: 96 h
[15] = Cytotoxicity against human MAXF 401NL cells after 4 days by propidium iodide staining-based fluorometric analysis; assay type: functional, cell-based; conditions: 96 h
[16] = Cytotoxicity against human PAXF 546L cells after 4 days by propidium iodide staining-based fluorometric analysis; assay type: functional, cell-based; conditions: 96 h
[17] = Cytotoxicity against human BXF T24 cells after 4 days by propidium iodide staining-based fluorometric analysis; assay type: functional, cell-based; conditions: T-24, 96 h
NCI-H460 = test: Cytotoxicity against human H460 cells after 4 days by propidium iodide staining-based fluorometric analysis; assay type: functional, cell-based; conditions: NCI-H460, 96 h
PANC-1 = test: Cytotoxicity against human PANC1 cells after 4 days by propidium iodide staining-based fluorometric analysis; assay type: functional, cell-based; conditions: PANC-1, 96 h
[18] = target: Hepatocyte growth factor receptor (Homo sapiens) (UniProt P08581); test: Inhibition of MET using poly(Ala, Glu, Lys, Tyr) as substrate and [gamma33P]ATP at 1 uM after 60 mins by scintillation counting
MKN-45 = test: Cytotoxicity against human MKN45 cells after 4 days by propidium iodide staining-based fluorometric analysis; assay type: functional, cell-based; conditions: MKN-45, 96 h
[19] = Cytotoxicity against human RXF 393NL cells after 4 days by propidium iodide staining-based fluorometric analysis; assay type: functional, cell-based; conditions: 96 h
OVCAR-3 = test: Cytotoxicity against human OVCAR3 cells after 4 days by propidium iodide staining-based fluorometric analysis; assay type: functional, cell-based; conditions: OVCAR-3, 96 h
[20] = Cytotoxicity against human PXF 1752L cells after 4 days by propidium iodide staining-based fluorometric analysis; assay type: functional, cell-based; conditions: 96 h
MCF7 = test: Cytotoxicity against human MCF7 cells after 4 days by propidium iodide staining-based fluorometric analysis; assay type: functional, cell-based; conditions: MCF7, 96 h
[21] = Cytotoxicity against human BXF 1352L cells after 4 days by propidium iodide staining-based fluorometric analysis; assay type: functional, cell-based; conditions: 96 h
DU-145 = test: Cytotoxicity against human DU145 cells after 4 days by propidium iodide staining-based fluorometric analysis; assay type: functional, cell-based; conditions: DU-145, 96 h
HT-29 = test: Cytotoxicity against human HT-29 cells after 4 days by propidium iodide staining-based fluorometric analysis; assay type: functional, cell-based; conditions: HT-29, 96 h
[22] = Cytotoxicity against human MEXF 462NL cells after 4 days by propidium iodide staining-based fluorometric analysis; assay type: functional, cell-based; conditions: 96 h
[23] = Cytotoxicity against human LIXF 575L cells after 4 days by propidium iodide staining-based fluorometric analysis; assay type: functional, cell-based; conditions: 96 h
[24] = Cytotoxicity against human RXF 1781L cells after 4 days by propidium iodide staining-based fluorometric analysis; assay type: functional, cell-based; conditions: 96 h
SAOS-2 = test: Cytotoxicity against human Saos2 cells after 4 days by propidium iodide staining-based fluorometric analysis; assay type: functional, cell-based; conditions: SAOS-2, 96 h
[25] = Cytotoxicity against human MDA231 cells after 4 days by propidium iodide staining-based fluorometric analysis; assay type: functional, cell-based; conditions: MDA-MB-231, 96 h
[26] = target: Tyrosine-protein kinase ABL1 (Homo sapiens) (UniProt P00519); test: Inhibition of ABL1 using poly(Ala, Glu, Lys, Tyr) as substrate and [gamma33P]ATP at 1 uM after 60 mins by scintillation counting
[27] = Cytotoxicity against human BXF 1218L cells after 4 days by propidium iodide staining-based fluorometric analysis; assay type: functional, cell-based; conditions: 96 h
[28] = Cytotoxicity against human PC3M cells after 4 days by propidium iodide staining-based fluorometric analysis; assay type: functional, cell-based; conditions: PC-3M, 96 h
[29] = Cytotoxicity against human LXFL 529L cells after 4 days by propidium iodide staining-based fluorometric analysis; assay type: functional, cell-based; conditions: 96 h
[30] = Cytotoxicity against human OVXF 899L cells after 4 days by propidium iodide staining-based fluorometric analysis; assay type: functional, cell-based; conditions: 96 h
LNCaP = test: Cytotoxicity against human LNCAP cells after 4 days by propidium iodide staining-based fluorometric analysis; assay type: functional, cell-based; conditions: 96 h
CWR22R = test: Cytotoxicity against human 22Rv1 cells after 4 days by propidium iodide staining-based fluorometric analysis; assay type: functional, cell-based; conditions: 22Rv1, 96 h
[31] = target: T1, Epidermal growth factor receptor (Homo sapiens, UniProt P00533); test: Inhibition of EGFR using poly(Glu,Tyr)4:1 as substrate and [gamma33P]ATP after 60 mins by scintillation counting
[32] = target: Vascular endothelial growth factor receptor 2 (Homo sapiens) (UniProt P35968); test: Inhibition of VEGFR2 using poly(Glu,Tyr)4:1 as substrate and [gamma33P]ATP at 1 uM after 60 mins by scintillation counting
[33] = target: T1, Epidermal growth factor receptor; test: Inhibition of EGFR using poly(Glu,Tyr)4:1 as substrate and [gamma33P]ATP at 1 uM after 60 mins by scintillation counting
[34] = target: Receptor tyrosine-protein kinase erbB-2 (Homo sapiens) (UniProt P04626); test: Inhibition of Erbb2 using poly(Glu,Tyr)4:1 as substrate and [gamma33P]ATP at 1 uM after 60 mins by scintillation counting

Hepatocyte growth factor receptor (Homo sapiens), sequence (P08581 whole entry): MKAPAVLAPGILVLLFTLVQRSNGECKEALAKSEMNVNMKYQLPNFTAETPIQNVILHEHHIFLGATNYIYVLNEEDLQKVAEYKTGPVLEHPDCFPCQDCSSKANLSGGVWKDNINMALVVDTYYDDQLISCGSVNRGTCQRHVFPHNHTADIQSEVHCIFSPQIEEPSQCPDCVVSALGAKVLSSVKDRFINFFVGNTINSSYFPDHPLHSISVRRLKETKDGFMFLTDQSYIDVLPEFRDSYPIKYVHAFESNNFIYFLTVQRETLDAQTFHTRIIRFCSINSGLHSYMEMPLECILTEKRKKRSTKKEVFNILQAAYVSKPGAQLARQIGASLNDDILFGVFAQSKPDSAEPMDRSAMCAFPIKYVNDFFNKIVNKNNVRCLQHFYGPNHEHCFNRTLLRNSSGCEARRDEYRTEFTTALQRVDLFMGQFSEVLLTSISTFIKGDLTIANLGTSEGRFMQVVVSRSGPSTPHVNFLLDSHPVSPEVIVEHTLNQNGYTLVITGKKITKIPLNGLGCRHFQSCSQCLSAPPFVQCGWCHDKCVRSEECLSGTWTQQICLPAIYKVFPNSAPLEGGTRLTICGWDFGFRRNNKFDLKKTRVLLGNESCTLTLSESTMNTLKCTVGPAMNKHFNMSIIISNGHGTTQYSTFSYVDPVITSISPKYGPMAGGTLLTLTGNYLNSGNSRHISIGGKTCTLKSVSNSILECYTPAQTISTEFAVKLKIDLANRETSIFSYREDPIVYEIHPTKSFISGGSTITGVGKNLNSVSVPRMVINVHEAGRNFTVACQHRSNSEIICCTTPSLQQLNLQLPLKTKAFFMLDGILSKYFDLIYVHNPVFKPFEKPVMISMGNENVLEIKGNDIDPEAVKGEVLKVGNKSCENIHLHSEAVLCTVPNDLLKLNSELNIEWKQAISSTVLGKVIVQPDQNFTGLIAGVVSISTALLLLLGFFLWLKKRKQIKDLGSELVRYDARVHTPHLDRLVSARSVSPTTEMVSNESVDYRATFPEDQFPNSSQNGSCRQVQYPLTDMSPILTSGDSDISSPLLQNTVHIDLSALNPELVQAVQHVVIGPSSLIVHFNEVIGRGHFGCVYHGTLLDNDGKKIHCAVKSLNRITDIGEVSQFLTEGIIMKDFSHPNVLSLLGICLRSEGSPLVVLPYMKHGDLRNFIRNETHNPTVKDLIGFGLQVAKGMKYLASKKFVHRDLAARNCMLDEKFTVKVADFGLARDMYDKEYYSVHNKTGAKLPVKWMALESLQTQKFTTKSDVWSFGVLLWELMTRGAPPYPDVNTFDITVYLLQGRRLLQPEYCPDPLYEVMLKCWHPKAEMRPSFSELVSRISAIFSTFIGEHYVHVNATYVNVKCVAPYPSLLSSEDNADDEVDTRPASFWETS
Tyrosine-protein kinase ABL1 (Homo sapiens), sequence (P00519 whole entry): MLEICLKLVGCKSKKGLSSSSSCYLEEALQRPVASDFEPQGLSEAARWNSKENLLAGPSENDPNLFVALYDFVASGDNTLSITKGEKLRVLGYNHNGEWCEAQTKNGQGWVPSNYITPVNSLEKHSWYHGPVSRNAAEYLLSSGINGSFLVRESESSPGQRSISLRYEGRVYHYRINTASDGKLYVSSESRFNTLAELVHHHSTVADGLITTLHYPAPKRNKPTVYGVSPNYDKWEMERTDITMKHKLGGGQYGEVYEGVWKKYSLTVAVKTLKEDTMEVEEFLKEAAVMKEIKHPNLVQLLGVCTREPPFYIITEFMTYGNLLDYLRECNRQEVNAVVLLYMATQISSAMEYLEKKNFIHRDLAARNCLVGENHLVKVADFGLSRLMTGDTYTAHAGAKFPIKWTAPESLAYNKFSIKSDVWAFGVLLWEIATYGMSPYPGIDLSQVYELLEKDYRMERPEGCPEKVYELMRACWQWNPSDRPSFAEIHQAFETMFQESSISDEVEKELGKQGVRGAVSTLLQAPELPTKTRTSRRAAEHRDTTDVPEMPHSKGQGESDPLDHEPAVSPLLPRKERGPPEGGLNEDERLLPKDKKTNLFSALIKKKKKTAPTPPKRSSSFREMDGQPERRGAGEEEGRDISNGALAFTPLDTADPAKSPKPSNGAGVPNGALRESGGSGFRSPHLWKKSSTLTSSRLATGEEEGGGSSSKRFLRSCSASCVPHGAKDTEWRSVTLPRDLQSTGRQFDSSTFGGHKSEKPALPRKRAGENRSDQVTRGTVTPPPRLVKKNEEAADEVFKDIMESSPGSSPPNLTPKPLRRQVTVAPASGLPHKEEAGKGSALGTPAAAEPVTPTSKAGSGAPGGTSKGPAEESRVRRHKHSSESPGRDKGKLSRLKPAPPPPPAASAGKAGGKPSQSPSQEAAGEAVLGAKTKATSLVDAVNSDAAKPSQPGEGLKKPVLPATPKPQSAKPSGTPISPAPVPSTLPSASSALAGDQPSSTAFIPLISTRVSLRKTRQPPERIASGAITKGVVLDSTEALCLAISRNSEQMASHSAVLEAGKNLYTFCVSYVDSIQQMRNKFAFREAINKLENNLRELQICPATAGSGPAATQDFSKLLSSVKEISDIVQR
T1 sequence (P00533 whole entry): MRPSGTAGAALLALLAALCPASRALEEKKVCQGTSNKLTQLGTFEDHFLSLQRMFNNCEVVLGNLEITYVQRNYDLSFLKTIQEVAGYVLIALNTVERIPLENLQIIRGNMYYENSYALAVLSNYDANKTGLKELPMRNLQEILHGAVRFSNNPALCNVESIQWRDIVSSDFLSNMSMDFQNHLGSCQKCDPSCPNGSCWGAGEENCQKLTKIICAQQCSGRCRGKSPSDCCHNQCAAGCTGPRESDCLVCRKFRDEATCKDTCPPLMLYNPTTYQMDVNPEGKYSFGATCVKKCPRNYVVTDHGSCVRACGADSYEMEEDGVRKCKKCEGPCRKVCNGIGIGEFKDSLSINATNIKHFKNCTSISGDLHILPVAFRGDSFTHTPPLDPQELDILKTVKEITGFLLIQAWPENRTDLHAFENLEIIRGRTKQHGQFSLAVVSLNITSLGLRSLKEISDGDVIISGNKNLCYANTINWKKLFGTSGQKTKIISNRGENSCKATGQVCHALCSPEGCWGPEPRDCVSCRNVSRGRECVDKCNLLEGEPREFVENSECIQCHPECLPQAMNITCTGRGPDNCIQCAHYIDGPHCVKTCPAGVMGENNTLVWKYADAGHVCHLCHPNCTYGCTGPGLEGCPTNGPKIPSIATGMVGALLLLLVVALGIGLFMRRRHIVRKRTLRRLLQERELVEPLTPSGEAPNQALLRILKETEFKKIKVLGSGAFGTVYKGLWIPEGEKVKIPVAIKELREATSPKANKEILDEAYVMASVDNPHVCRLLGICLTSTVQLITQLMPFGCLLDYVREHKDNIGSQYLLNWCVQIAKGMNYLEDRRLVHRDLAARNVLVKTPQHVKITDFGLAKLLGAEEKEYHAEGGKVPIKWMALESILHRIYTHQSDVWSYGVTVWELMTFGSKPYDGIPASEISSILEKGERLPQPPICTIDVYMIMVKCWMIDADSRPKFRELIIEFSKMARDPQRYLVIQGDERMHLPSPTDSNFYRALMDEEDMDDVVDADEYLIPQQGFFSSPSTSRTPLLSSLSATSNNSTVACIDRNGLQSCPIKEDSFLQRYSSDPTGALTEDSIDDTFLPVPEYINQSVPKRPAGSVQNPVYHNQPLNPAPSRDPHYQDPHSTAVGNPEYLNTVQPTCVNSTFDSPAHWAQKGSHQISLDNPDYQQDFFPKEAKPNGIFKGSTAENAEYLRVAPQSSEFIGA
Vascular endothelial growth factor receptor 2 (Homo sapiens), sequence (P35968 whole entry): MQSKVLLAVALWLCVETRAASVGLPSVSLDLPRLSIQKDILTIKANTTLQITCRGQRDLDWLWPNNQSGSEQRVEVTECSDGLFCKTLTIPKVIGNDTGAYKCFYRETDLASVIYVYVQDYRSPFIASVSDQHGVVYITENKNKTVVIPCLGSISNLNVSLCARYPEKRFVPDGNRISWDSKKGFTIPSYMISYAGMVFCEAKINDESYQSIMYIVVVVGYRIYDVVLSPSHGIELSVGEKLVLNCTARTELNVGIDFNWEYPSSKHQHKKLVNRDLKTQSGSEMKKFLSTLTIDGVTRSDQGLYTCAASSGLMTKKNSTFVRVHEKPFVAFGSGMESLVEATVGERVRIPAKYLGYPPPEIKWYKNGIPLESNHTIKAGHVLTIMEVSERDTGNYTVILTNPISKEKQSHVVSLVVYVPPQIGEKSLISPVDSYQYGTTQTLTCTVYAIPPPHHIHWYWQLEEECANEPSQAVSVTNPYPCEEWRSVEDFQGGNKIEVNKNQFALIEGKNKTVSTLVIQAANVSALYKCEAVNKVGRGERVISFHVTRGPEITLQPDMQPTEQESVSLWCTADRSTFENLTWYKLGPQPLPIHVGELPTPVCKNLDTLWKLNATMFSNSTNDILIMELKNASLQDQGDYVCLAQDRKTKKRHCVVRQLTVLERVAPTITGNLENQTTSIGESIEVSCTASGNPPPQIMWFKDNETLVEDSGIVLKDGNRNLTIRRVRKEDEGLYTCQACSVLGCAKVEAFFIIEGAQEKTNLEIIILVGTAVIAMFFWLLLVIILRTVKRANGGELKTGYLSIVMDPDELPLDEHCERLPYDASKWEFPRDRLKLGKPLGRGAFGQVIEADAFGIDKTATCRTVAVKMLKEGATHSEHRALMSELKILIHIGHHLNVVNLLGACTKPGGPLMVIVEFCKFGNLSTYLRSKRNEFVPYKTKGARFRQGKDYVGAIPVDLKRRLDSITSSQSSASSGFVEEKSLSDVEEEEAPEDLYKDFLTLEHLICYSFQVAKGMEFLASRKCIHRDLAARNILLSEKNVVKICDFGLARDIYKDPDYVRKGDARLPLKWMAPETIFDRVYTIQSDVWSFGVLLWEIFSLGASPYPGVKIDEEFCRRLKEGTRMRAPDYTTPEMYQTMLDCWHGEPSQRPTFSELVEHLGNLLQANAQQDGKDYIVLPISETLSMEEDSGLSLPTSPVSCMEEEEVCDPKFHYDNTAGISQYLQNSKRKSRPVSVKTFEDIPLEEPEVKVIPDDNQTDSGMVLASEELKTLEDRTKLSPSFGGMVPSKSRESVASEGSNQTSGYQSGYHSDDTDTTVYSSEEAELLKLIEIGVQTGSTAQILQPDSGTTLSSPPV

CS(=O)(=O)CCNCc1ccc(-c2ccc3ncnc(Nc4ccc(OCc5cccc(F)c5)c(Cl)c4)c3c2)o1 [LAPATINIB]
IC50 (CAL-27): 0.53 µM
IC50 [1]: 8.36 µM
IC50 [2]: 4.21 µM
IC50 [3]: 1.48 µM
IC50 (TE-671): 11 µM
IC50 [4]: 2.87 µM
IC50 [5]: 11.4 µM
IC50 [6]: 6.86 µM
IC50 [7]: 11.1 µM
IC50 [8]: 9.1 µM
IC50 [9]: 0.235 µM
IC50 (HCT-116): 13.1 µM
IC50 [10]: 4.4 µM
IC50 [11]: 4.85 µM
IC50 [12]: 5.79 µM
IC50 [13]: 7.73 µM
IC50 (RKO): 5.35 µM
IC50 [14]: 9.49 µM
IC50 [15]: 5.8 µM
IC50 [16]: 6.12 µM
IC50 [17]: 9.65 µM
IC50 (NCI-H460): 13.5 µM
IC50 (PANC-1): 8.12 µM
inhibition [18]: inactive
IC50 (MKN-45): 11.5 µM
IC50 [19]: 7.77 µM
IC50 (OVCAR-3): 13.4 µM
IC50 [20]: 9.46 µM
IC50 (MCF7): 4.83 µM
IC50 [21]: 11.5 µM
IC50 (DU-145): 2.99 µM
IC50 (HT-29): 4.62 µM
IC50 [22]: 10.1 µM
IC50 [23]: 7.18 µM
IC50 [24]: 7.67 µM
IC50 (SAOS-2; read-out: IC50): 9.38 µM
IC50 [25]: 7.7 µM
inhibition [26]: inactive
IC50 [27]: 11.8 µM
IC50 [28]: 4.55 µM
IC50 [29]: 3.51 µM
IC50 [30]: 3.35 µM
IC50 (LNCaP): 3.68 µM
IC50 (CWR22R): 6.06 µM

C#Cc1cccc(Nc2ncnc3cc(OCCOC)c(OCCOC)cc23)c1 [ERLOTINIB]
IC50 (CAL-27): 0.239 µM
IC50 [1]: 16 µM
IC50 [2]: 100 µM
IC50 [3]: 0.369 µM
IC50 (TE-671): 100 µM
IC50 [4]: 0.66 µM
IC50 [5]: 18.6 µM
IC50 [6]: 76.7 µM
IC50 [7]: 64.3 µM
IC50 [8]: 10 µM
IC50 [9]: 0.14 µM
IC50 (HCT-116): 65.8 µM
IC50 [10]: 24.5 µM
IC50 [11]: 30.1 µM
IC50 [12]: 1.78 µM
IC50 [13]: 34.6 µM
IC50 (RKO): 100 µM
IC50 [14]: 36.4 µM
IC50 [15]: 25 µM
IC50 [16]: 10 µM
IC50 [17]: 13.9 µM
IC50 (NCI-H460): 74.3 µM
IC50 (PANC-1): 75.8 µM
inhibition [18]: inactive
IC50 (MKN-45): 76.7 µM
IC50 [19]: 45.6 µM
IC50 (OVCAR-3): 100 µM
IC50 [20]: 31.6 µM
IC50 (MCF7): 100 µM
IC50 [21]: 87.8 µM
IC50 (DU-145): 0.966 µM
IC50 (HT-29): 100 µM
IC50 [22]: 100 µM
IC50 [23]: 47.2 µM
IC50 [24]: 76.7 µM
IC50 (SAOS-2): 21 µM
IC50 [25]: 34.5 µM
inhibition [26]: inactive
IC50 [27]: 96 µM
IC50 [28]: 17.2 µM
IC50 [29]: 17.4 µM
IC50 [30]: 8.77 µM
IC50 (LNCaP): 6.63 µM
IC50 (CWR22R): 100 µM

COc1ccc2[nH]c(C(=O)c3cc4c(Nc5ccc(F)c(Cl)c5)ncnc4s3)cc2c1
IC50 (CAL-27): 1.6 µM
IC50 [1]: 11.7 µM
IC50 [31]: 0.00593 µM
IC50 [2]: 28.5 µM
IC50 [3]: 3.9 µM
IC50 (TE-671): 55 µM
IC50 [4]: 5 µM
IC50 [5]: 31 µM
IC50 [6]: 62.9 µM
IC50 [7]: 24.6 µM
IC50 [8]: 10.2 µM
IC50 [9]: 1 µM
IC50 (HCT-116): 12.1 µM
IC50 [10]: 4.9 µM
IC50 [11]: 14.4 µM
inhibition [32]: 55%
IC50 [12]: 7.1 µM
IC50 [13]: 9 µM
IC50 (RKO): 15.8 µM
IC50 [14]: 26.7 µM
IC50 [15]: 4.2 µM
IC50 [16]: 14.1 µM
IC50 [17]: 17.8 µM
IC50 (NCI-H460): 15 µM
IC50 (PANC-1): 28.4 µM
inhibition [18]: inactive
IC50 (MKN-45): 38.2 µM
IC50 [19]: 21.1 µM
IC50 (OVCAR-3): 24.6 µM
IC50 [20]: 36 µM
IC50 (MCF7): 11.3 µM
IC50 [21]: 24.8 µM
IC50 (DU-145): 19.4 µM
IC50 (HT-29): 9.8 µM
IC50 [22]: 16.7 µM
IC50 [23]: 9.3 µM
IC50 [24]: 30.4 µM
IC50 (SAOS-2; read-out: IC50): 30.1 µM
IC50 [25]: 17.1 µM
inhibition [26]: inactive
IC50 [27]: 15.4 µM
IC50 [28]: 46.3 µM
IC50 [29]: 14.8 µM
IC50 [30]: 19 µM
IC50 (LNCaP): 32.5 µM
inhibition [33]: 96%
inhibition [34]: 60%
IC50 (CWR22R): 11.1 µM
